Test results taken from patent publication US11684067B2, “Generation of peroxyformic acid through polyhydric alcohol formate” (priority 2014, dated 2023).
Several values for one entry are separate records, joined by “and”; a condition that tells them apart may be missing. Equal values may be shown once. Read-outs that look alike come from different tables or passages of the source.

Columns and labels:
[1] = Stability of PFA in use solution in the presence of soils, iodometric titration; format: physicochemical; conditions: 500 ppm PFA in 500 ppm hard water with soil load, ambient; FIG. 22
Description: To 200 g of 500 ppm hard water containing individual soil load at the desired concentration, was added PFA stock solution to target PFA concentration of 500 ppm. The resulting solution was stored under ambient conditions, and the level of PFA was monitored by iodometric titration at the specific time point.

[2] = tested on: Nalidixic acid resistant E. coli O157:H7; test: Reduction of E. coli on raw beef brisket, dip treatment; format: cell-based; conditions: 10 minutes dip, ambient, 220 ppm POAA / 180 ppm PFA / 50 ppm LAS per formula (Table 15)
Description: Nalidixic acid resistant E. coli O157:H7 was used to evaluate the efficacy in treatment with performic acid composition on raw beef brisket according to the conditions shown in Table 14.
The generation of PFA from the perhydrolysis of glycerol formates, PFA formulations, POAA formations and controls were evaluated as shown in Table 15.

[3] = tested on: P. aeruginosa ATCC 15442 biofilm; test: Biofilm disinfectant efficacy, CDC Biofilm Reactor, Single Tube Method (ASTM E2562-12, E2871-12); format: cell-based, Pseudomonas aeruginosa
Description: P. aeruginosa ATCC 15442 biofilm was grown on the surface of 24 polycarbonate coupons following ASTM method E2562-12: Standard Test Method for Quantification of Pseudomonas aeruginosa Biofilm Grown with High Shear and Continuous Flow using CDC Biofilm Reactor. After 48 hours of biofilm establishment, the coupons were removed from the reactor and placed into individual centrifuge tubes. Three coupons per test substance were tested for disinfectant efficacy using ASTM method E2871-12: Standard Test Method for Evaluating Disinfectant Efficacy against Pseudomonas aeruginosa Biofilm Grown in CDC Biofilm Reactor using Single Tube Method. Each coupon was exposed to 4 mL of chemistry for an exposure time of 3 hours. […] This was followed with a series of vortexing and sonicating steps to remove any biofilm from the coupon surface into the solution for plating and enumeration.
P. aeruginosa ATCC 15442 biofilm was grown on the surface of 24 polycarbonate coupons following ASTM method E2562-12: Standard Test Method for Quantification of Pseudomonas aeruginosa Biofilm Grown with High Shear and Continuous Flow using CDC Biofilm Reactor. After 48 hours of biofilm establishment, the coupons were removed from the reactor and placed into individual centrifuge tubes. […]

[4] = cited from earlier work
[5] = tested on: Bacillus subitilisATCC 19659; test: Sporicidal activity of ester PFA versus POAA (Example 23); format: cell-based, Bacillus subtilis; conditions: 20°C, dirty
Excerpt: Additional Bacillus pathogens were used to evaluate the micro efficacy of ester PFA generated according to methods of the present invention in comparison to POAA.

[6] = tested on: Various pathogens; format: cell-based
[7] = tested on: Candida albicans ATCC 10231; test: Fungicidal/yeasticidal activity of ester PFA versus POAA (Example 22); format: cell-based; conditions: for Average CFU/mL / Log10 Growth / Log10 Reduction: 20°C, dirty
Excerpt: (§1) Canidia and Aspergillus pathogens were used to evaluate the micro efficacy of ester PFA generated according to methods of the present invention in comparison to POAA.

[8] = tested on: Aspergillus brasiliensis ATCC 16404; test: as above; format: cell-based; conditions: for Average CFU/mL / Log10 Growth / Log10 Reduction: 20°C, dirty
Excerpt: as §1

[9] = tested on: Bacillus subitilisATCC 19659; test: Sporicidal activity of ester PFA versus POAA (Example 21); format: cell-based, Bacillus subtilis; conditions: for Average CFU/mL / Log10 Growth / Log10 Reduction: 20°C, dirty
Excerpt: Bacillus pathogens were used to evaluate the micro efficacy of ester PFA generated according to methods of the present invention in comparison to POAA.

[10] = 300 ppm PFA pH 6.73 / 368 ppm POAA pH 6.88, 5 minutes
[11] = 300 ppm PFA pH 6.73 / 368 ppm POAA pH 6.88, 10 minutes
[12] = 400 ppm PFA pH 6.95 / 490 ppm POAA pH 6.65, 5 minutes
[13] = 400 ppm PFA pH 6.95 / 490 ppm POAA pH 6.65, 10 minutes
[14] = 200 ppm PFA pH 6.15 / 245 ppm POAA pH 6.56, 5 minutes
[15] = 200 ppm PFA pH 6.15 / 245 ppm POAA pH 6.56, 10 minutes
[16] = 200 ppm PFA pH 6.15 / 245 ppm POAA pH 6.56, 15 minutes
[17] = 300 ppm PFA pH 6.21 / 368 ppm POAA pH 6.63, 5 minutes
[18] = 300 ppm PFA pH 6.21 / 368 ppm POAA pH 6.63, 10 minutes
[19] = 300 ppm PFA pH 6.84 / 368 ppm POAA pH 6.73 (molar equivalent), 5 minutes
[20] = 300 ppm PFA pH 6.84 / 368 ppm POAA pH 6.73 (molar equivalent), 10 minutes
[21] = 400 ppm PFA pH 7.19 / 490 ppm POAA pH 6.78 (molar equivalent), 5 minutes
[22] = 400 ppm PFA pH 7.19 / 490 ppm POAA pH 6.78 (molar equivalent), 10 minutes

For `O=COO` [PFA, peroxyformic acid], which “impact of soils on the stability of PFA” value [1] is on record?
The value was “no impact”.

What about the “Average Log CFU/cm2” value [2] of the same compound?
The value was 3.22 Log CFU/cm2.

What about the “Log reduction” value [2] of the same compound?
Its value is 0.83 Log.

And the CFU/cm2 ([2]; single samples)?
Its CFU/cm2 is 1.84E+03 CFU/cm2 and 1.42E+03 CFU/cm2 and 1.72E+03 CFU/cm2.

And the CFU/ml ([2]; single samples)?
The CFU/ml was 9.20E+02 CFU/ml and 7.10E+02 CFU/ml and 8.60E+02 CFU/ml.

And the “Log CFU/cm2” value ([2]; single samples)?
The value was 3.26 Log CFU/cm2 and 3.15 Log CFU/cm2 and 3.24 Log CFU/cm2.

And the “anti-biofilm efficacy compared with POAA” value ([3]; 50 ppm PFA 15 minutes to 3 hours vs 200 ppm POAA 3 hours, FIG. 12)?
The value was “greater anti-biofilm efficacy”.

What about the “anti-biofilm efficacy compared with POAA” value ([3]; 3 hours exposure, concentration lower than POAA, FIG. 11) of the same compound?
Its value is “significantly greater anti-biofilm efficacy”.

And the pKa value [4]?
Its pKa value is 7.2.

And the “Average CFU/mL” value [5, 10]?
Its value is >3.0E+05 CFU/mL.

And the “Log10 Growth” value [5, 10]?
The value was >5.48 Log10.

What about the “Log10 Reduction” value [5, 10] of the same compound?
The value was <2.26 Log10.

And the “Average CFU/mL” value [5, 11]?
Its value is 1.28E+05 CFU/mL.

What about the “Log10 Growth” value [5, 11] of the same compound?
The value was 5.11 Log10.

What about the “Log10 Reduction” value [5, 11] of the same compound?
Its value is 2.63 Log10.

And the “Average CFU/mL” value [5, 12]?
Its value is >3.0E+05 CFU/mL.

And the “Log10 Growth” value [5, 12]?
Its value is >5.48 Log10.

And the “Log10 Reduction” value [5, 12]?
The value was <2.26 Log10.

And the “Average CFU/mL” value [5, 13]?
The value was 7.50E+04 CFU/mL.

And the “Log10 Growth” value [5, 13]?
The value was 4.88 Log10.

And the “Log10 Reduction” value [5, 13]?
The value was 2.86 Log10.

What about the Result ([6]; EN 13624, 450 ppm PFA pH 6-7, Aspergillus brasiliensis ATCC 1604, passing requirement 4 log reduction) of the same compound?
The Result was “PASS”.

And the Result ([6]; EN 13624, 450 ppm PFA pH 6-7, Canidia albicans ATCC 10231, passing requirement 4 log reduction)?
The Result was “PASS”.

And the Result ([6]; EN 13704, 450 ppm PFA pH 6-7, Bacillus subtilis ATCC 6633, passing requirement 3 log reduction)?
The Result was “PASS”.

And the Result ([6]; EN 13727, 450 ppm PFA pH 6-7, Enterococcus hirae ATCC 10541, passing requirement 5 log reduction)?
Its Result is “PASS”.

And the Result ([6]; EN 13727, 450 ppm PFA pH 6-7, P. aeruginosa ATCC 15442, passing requirement 5 log reduction)?
Its Result is “PASS”.

And the Result ([6]; EN 13727, 450 ppm PFA pH 6-7, Staph Aureus ATCC 6538, passing requirement 5 log reduction)?
Its Result is “PASS”.

What about the Result ([6]; pH 6) of the same compound?
The Result was “PASS”.

What about the “reduction in C. albicans compared with POAA” value ([7]; 5, 10 and 15 minutes, lower actives, FIG. 18) of the same compound?
Its value is “equivalent reduction”.

And the “Average CFU/mL” value [7, 14]?
Its value is <140 CFU/mL.

And the “Log10 Growth” value [7, 14]?
The value was <2.15 Log10.

And the “Log10 Reduction” value [7, 14]?
Its value is >4.14 Log10.

What about the “Average CFU/mL” value [7, 15] of the same compound?
The value was <140 CFU/mL.

What about the “Log10 Growth” value [7, 15] of the same compound?
Its value is <2.15 Log10.

And the “Log10 Reduction” value [7, 15]?
The value was >4.14 Log10.

And the “Average CFU/mL” value [7, 16]?
Its value is <140 CFU/mL.

And the “Log10 Growth” value [7, 16]?
Its value is <2.15 Log10.

What about the “Log10 Reduction” value [7, 16] of the same compound?
Its value is >4.14 Log10.

What about the “Average CFU/mL” value [7, 17] of the same compound?
The value was <140 CFU/mL.

And the “Log10 Growth” value [7, 17]?
Its value is <2.15 Log10.

And the “Log10 Reduction” value [7, 17]?
The value was >4.14 Log10.

What about the “Average CFU/mL” value [7, 18] of the same compound?
The value was <140 CFU/mL.

And the “Log10 Growth” value [7, 18]?
The value was <2.15 Log10.

And the “Log10 Reduction” value [7, 18]?
Its value is >4.14 Log10.

And the “reduction in A. brasiliensis conidio spores compared with POAA” value ([8]; 5, 10 and 15 minutes, lower actives, FIG. 19)?
The value was “improved reduction”.

And the “Average CFU/mL” value [8, 14]?
Its value is 1.60E+04 CFU/mL.

And the “Log10 Growth” value [8, 14]?
The value was 4.20 Log10.

And the “Log10 Reduction” value [8, 14]?
The value was 1.54 Log10.

And the “Average CFU/mL” value [8, 15]?
Its value is 1.75E+03 CFU/mL.

What about the “Log10 Growth” value [8, 15] of the same compound?
The value was 3.24 Log10.

What about the “Log10 Reduction” value [8, 15] of the same compound?
The value was 2.50 Log10.

And the “Average CFU/mL” value [8, 16]?
The value was 3.85E+02 CFU/mL.

And the “Log10 Growth” value [8, 16]?
Its value is 2.59 Log10.

And the “Log10 Reduction” value [8, 16]?
Its value is 3.16 Log10.

And the “Average CFU/mL” value [8, 17]?
The value was 4.10E+02 CFU/mL.

What about the “Log10 Growth” value [8, 17] of the same compound?
Its value is 2.61 Log10.

And the “Log10 Reduction” value [8, 17]?
The value was 3.13 Log10.

And the “Average CFU/mL” value [8, 18]?
The value was 1.20E+02 CFU/mL.

And the “Log10 Growth” value [8, 18]?
Its value is 2.08 Log10.

And the “Log10 Reduction” value [8, 18]?
The value was 3.67 Log10.

What about the “reduction in B. subtillis spores compared with POAA” value ([9]; 5 and 10 minutes, lower concentrations than POAA, FIG. 17) of the same compound?
The value was “increased reduction”.

And the “Average CFU/mL” value [9, 19]?
Its value is 3.25E+03 CFU/mL.

And the “Log10 Growth” value [9, 19]?
Its value is 3.51 Log10.

What about the “Log10 Reduction” value [9, 19] of the same compound?
The value was 2.28 Log10.

What about the “Average CFU/mL” value [9, 20] of the same compound?
The value was 4.50E+01 CFU/mL.

What about the “Log10 Growth” value [9, 20] of the same compound?
The value was 1.65 Log10.

And the “Log10 Reduction” value [9, 20]?
Its value is 4.14 Log10.

And the “Average CFU/mL” value [9, 21]?
The value was 3.45E+03 CFU/mL.

What about the “Log10 Growth” value [9, 21] of the same compound?
Its value is 3.54 Log10.

What about the “Log10 Reduction” value [9, 21] of the same compound?
Its value is 2.26 Log10.

What about the “Average CFU/mL” value [9, 22] of the same compound?
The value was 1.30E+03 CFU/mL.

What about the “Log10 Growth” value [9, 22] of the same compound?
Its value is 3.11 Log10.

What about the “Log10 Reduction” value [9, 22] of the same compound?
Its value is 2.68 Log10.
